Like-named read-outs stand apart in the source and are kept apart here.
Key:
Experiment in all cases: Test A preemergence
Type in all cases: in vivo
[1] = tested on: Kochia (Kochia scoparia); details: Bassia scoparia, pre-emergence, 240 h; for pest or weed control at 125 g/ha: 125 g ai/ha; for pest or weed control at 500 g/ha: 500 g ai/ha
How it was run: (§1)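 Each rating is a visual injury score from 0 to 100 given about 10 d after treatment, judged against untreated controls kept alongside in the greenhouse. In loam soil–sand blend, seeds got a preemergence directed soil spray, while postemergence plants were 2 to 10 cm tall at spraying.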

[2] = tested on: giant foxtail (Setaria faberii); details: Setaria faberi, pre-emergence, 240 h; for pest or weed control at 125 g/ha: 125 g ai/ha; for pest or weed control at 500 g/ha: 500 g ai/ha
How it was run: as §1

[3] = tested on: pigweed (Amaranthus retroflexus); details: Amaranthus retroflexus, pre-emergence, 240 h; for pest or weed control at 125 g/ha: 125 g ai/ha; for pest or weed control at 500 g/ha: 500 g ai/ha
[4] = tested on: ragweed (common ragweed, Ambrosia elatior); details: Ambrosia artemisiifolia, pre-emergence, 240 h; for pest or weed control at 125 g/ha: 125 g ai/ha; for pest or weed control at 500 g/ha: 500 g ai/ha
How it was run: as §1

[5] = tested on: ryegrass, Italian (Italian ryegrass, Lolium multiflorum); details: Lolium multiflorum, pre-emergence, 240 h; for pest or weed control at 125 g/ha: 125 g ai/ha; for pest or weed control at 500 g/ha: 500 g ai/ha
How it was run: as §1

[6] = preemergence, visual injury rating about 10 d after treatment, 0 to 100 scale (0 no effect, 100 complete control), read-out: Kochia plant response rating
[7] = preemergence, visual injury rating about 10 d after treatment, 0 to 100 scale (0 no effect, 100 complete control), read-out: Foxtail, Giant plant response rating
[8] = preemergence, visual injury rating about 10 d after treatment, 0 to 100 scale (0 no effect, 100 complete control), read-out: Pigweed plant response rating
[9] = preemergence, visual injury rating about 10 d after treatment, 0 to 100 scale (0 no effect, 100 complete control), read-out: Ragweed plant response rating
[10] = preemergence, visual injury rating about 10 d after treatment, 0 to 100 scale (0 no effect, 100 complete control), read-out: Ryegrass, Italian plant response rating
[11] = preemergence, 0 to 100 scale where 0 is no effect and 100 is complete control, approx. 10 d, read-out: Kochia plant response rating
[12] = preemergence, 0 to 100 scale where 0 is no effect and 100 is complete control, approx. 10 d, read-out: Foxtail, Giant plant response rating
[13] = preemergence, 0 to 100 scale where 0 is no effect and 100 is complete control, approx. 10 d, read-out: Pigweed plant response rating
[14] = preemergence, 0 to 100 scale where 0 is no effect and 100 is complete control, approx. 10 d, read-out: Ragweed plant response rating
[15] = preemergence, 0 to 100 scale where 0 is no effect and 100 is complete control, approx. 10 d, read-out: Ryegrass, Italian plant response rating
[16] = preemergence, 0 to 100 scale where 0 is no effect and 100 is complete control, read-out: Kochia plant response rating
[17] = preemergence, 0 to 100 scale where 0 is no effect and 100 is complete control, read-out: Foxtail, Giant plant response rating
[18] = preemergence, 0 to 100 scale where 0 is no effect and 100 is complete control, read-out: Pigweed plant response rating
[19] = preemergence, 0 to 100 scale where 0 is no effect and 100 is complete control, read-out: Ragweed plant response rating
[20] = preemergence, 0 to 100 scale where 0 is no effect and 100 is complete control, read-out: Ryegrass, Italian plant response rating
[21] = Preemergence, visual injury vs untreated controls after approximately 10 d, read-out: Kochia plant response rating (0 to 100 scale where 0 is no effect and 100 is complete control)
[22] = Preemergence, visual injury vs untreated controls after approximately 10 d, read-out: Foxtail, Giant plant response rating (0 to 100 scale where 0 is no effect and 100 is complete control)
[23] = Preemergence, visual injury vs untreated controls after approximately 10 d, read-out: Pigweed plant response rating (0 to 100 scale where 0 is no effect and 100 is complete control)
[24] = Preemergence, visual injury vs untreated controls after approximately 10 d, read-out: Ragweed plant response rating (0 to 100 scale where 0 is no effect and 100 is complete control)
[25] = Preemergence, visual injury vs untreated controls after approximately 10 d, read-out: Ryegrass, Italian plant response rating (0 to 100 scale where 0 is no effect and 100 is complete control)

SMILES | pest or weed control at 125 g/ha [1, 16] [%] | pest or weed control at 500 g/ha [1, 21] [%] | pest or weed control at 125 g/ha [2, 17] [%] | pest or weed control at 500 g/ha [2, 22] [%] | pest or weed control at 125 g/ha [3, 18] [%] | pest or weed control at 500 g/ha [3, 23] [%] | pest or weed control at 125 g/ha [4, 19] [%] | pest or weed control at 500 g/ha [4, 24] [%] | pest or weed control at 125 g/ha [5, 20] [%] | pest or weed control at 500 g/ha [5, 25] [%] | further results
O=C(Nc1ccccc1F)[C@H]1C(=S)NC[C@@H]1c1ccc(C(F)(F)F)cc1 (racemic) [Compound 1047] |  |  |  |  |  |  |  |  |  |  | pest or weed control at 125 g/ha ([1]; Preemergence, visual injury rating after approximately 10 d, read-out: Kochia plant response rating (0 to 100 scale, 0 is no effect, 100 is complete control)): 60%; pest or weed control at 500 g/ha [1, 6]: 80%; pest or weed control at 125 g/ha ([2]; Preemergence, visual injury rating after approximately 10 d, read-out: Foxtail, Giant plant response rating (0 to 100 scale, 0 is no effect, 100 is complete control)): 60%; pest or weed control at 500 g/ha [2, 7]: 80%; pest or weed control at 125 g/ha ([3]; Preemergence, visual injury rating after approximately 10 d, read-out: Pigweed plant response rating (0 to 100 scale, 0 is no effect, 100 is complete control)): 0%; pest or weed control at 500 g/ha [3, 8]: 20%; pest or weed control at 125 g/ha ([4]; Preemergence, visual injury rating after approximately 10 d, read-out: Ragweed plant response rating (0 to 100 scale, 0 is no effect, 100 is complete control)): 40%; pest or weed control at 500 g/ha [4, 9]: 60%; pest or weed control at 125 g/ha ([5]; Preemergence, visual injury rating after approximately 10 d, read-out: Ryegrass, Italian plant response rating (0 to 100 scale, 0 is no effect, 100 is complete control)): 0%; pest or weed control at 500 g/ha [5, 10]: 0%
Cc1ccc([C@H]2CNC(=O)[C@]2(Br)C(=O)Nc2cccc(F)c2F)cc1F (racemic) [Compound 1073] |  |  |  |  |  |  |  |  |  |  | pest or weed control at 125 g/ha [1, 11]: 0%; pest or weed control at 500 g/ha [1, 6]: 70%; pest or weed control at 125 g/ha [2, 12]: 100%; pest or weed control at 500 g/ha [2, 7]: 100%; pest or weed control at 125 g/ha [3, 13]: 100%; pest or weed control at 500 g/ha [3, 8]: 100%; pest or weed control at 125 g/ha [4, 14]: 10%; pest or weed control at 500 g/ha [4, 9]: 30%; pest or weed control at 125 g/ha [5, 15]: 0%; pest or weed control at 500 g/ha [5, 10]: 20%
C/C=C/N1C[C@@H](c2cccc(C(F)(F)F)c2)[C@H](C(=O)Nc2ccccc2F)C1=O (racemic) [Compound 1094] |  |  |  |  |  |  |  |  |  |  | pest or weed control at 125 g/ha [1, 11]: 0%; pest or weed control at 500 g/ha [1, 6]: 0%; pest or weed control at 125 g/ha [2, 12]: 90%; pest or weed control at 500 g/ha [2, 7]: 100%; pest or weed control at 125 g/ha [3, 13]: 0%; pest or weed control at 500 g/ha [3, 8]: 0%; pest or weed control at 125 g/ha [4, 14]: 0%; pest or weed control at 500 g/ha [4, 9]: 0%; pest or weed control at 125 g/ha [5, 15]: 0%; pest or weed control at 500 g/ha [5, 10]: 0%
CN1C[C@H](c2ccc(C(F)(F)F)cc2)[C@@](F)(C(=O)Nc2cccc(F)c2F)C1=O (racemic) [Compound 1151] |  |  |  |  |  |  |  |  |  |  | pest or weed control at 125 g/ha [1, 11]: 70%; pest or weed control at 500 g/ha [1, 16]: 80%; pest or weed control at 125 g/ha [2, 12]: 100%; pest or weed control at 500 g/ha [2, 17]: 100%; pest or weed control at 125 g/ha [3, 13]: 80%; pest or weed control at 500 g/ha [3, 18]: 100%; pest or weed control at 125 g/ha [4, 14]: 0%; pest or weed control at 500 g/ha [4, 19]: 60%; pest or weed control at 125 g/ha [5, 15]: 70%; pest or weed control at 500 g/ha [5, 20]: 70%
CC(C)c1cccc([C@H]2CN(C)C(=O)[C@@H]2C(=O)Nc2ccccc2S(C)(=O)=O)c1 [Compound 820] | 70 | 80 | 90 | 100 | 40 | 70 | 20 | 60 | 60 | 80 | 
CC(C)c1cccc([C@H]2CN(C)C(=O)[C@@H]2C(=O)Nc2ccc(F)cc2F)c1 [Compound 821] | 70 | 90 | 90 | 100 | 50 | 50 | 0 | 0 | 80 | 90 | 
CN1C[C@H](c2cccc(F)c2)[C@@H](C(=O)Nc2ccccc2F)C1=O [Compound 822] | 70 | 80 | 90 | 100 | 0 | 50 | 0 | 30 | 20 | 40 | 
Cc1c(F)cccc1NC(=O)[C@H]1C(=O)NC[C@@H]1c1cccc(C(F)(F)F)c1 [Compound 826] | 70 | 90 | 100 | 100 | 0 | 60 | 20 | 80 | 70 | 80 | 
Cc1cc(F)ccc1NC(=O)[C@H]1C(=O)NC[C@@H]1c1cccc(C(F)(F)F)c1 [Compound 828] | 40 | 40 | 90 | 100 | 0 | 0 | 0 | 0 | 50 | 70 | 
Cc1c(F)ccc([C@H]2CN(C)C(=O)[C@@H]2C(=O)Nc2ccccc2F)c1F [Compound 833] | 70 | 80 | 90 | 100 | 0 | 0 | 0 | 20 | 70 | 80 | 
Cc1c(F)ccc([C@H]2CN(C)C(=O)[C@@H]2C(=O)Nc2ccc(F)c(F)c2F)c1F [Compound 836] | 90 | 90 | 90 | 90 | 30 | 60 | 0 | 0 | 90 | 80 | 

— patent US12077503B2, “Substituted cyclic amides and their use as herbicides” (FMC CORPORATION, priority 2015, dated 2024)
